Experimental data published in US20250368678A1, “19-NOR-C3,3-DISUBSTITUTED C21-AZACYCLO-S[…] AND METHOD FOR USING SAME” (SHANDONG LUYE PHARMACEUTICAL CO., LTD., priority 2022, published 2025).

System: not listed separately
Assay: In vitro liver microsomal stability assay, human
Type: in vitro ADME
Conditions: Human liver microsomes
Method: (§1) 1) Preparation of working solutions of test samples: The test samples were diluted with acetonitrile to 100 M.
(§2) 2) Preparation of a working solution of liver microsomes: liver microsomes were diluted with 100 mM phosphate-buffered saline to 0.56 mg/mL.
(§3) 3) Preparation of a working solution of reduced nicotinamide adenine dinucleotide (NADPH): A proper amount of NADPH was weighed out and diluted with phosphate-buffered saline to 20 mM, and an equal volume of a 60 mM MgCl2 solution was added.
(§4) 4) Preparation of a stop solution: Tolbutamide was diluted with acetonitrile to 20 ng/mL, serving as a stop solution containing an internal standard.
(§5) 1) Incubation anti-adsorption EP tubes were prepared and labeled with species, test/control sample, time points (0, 5, 10, 20, 30, 60 min, Blank60, and NCF60), etc.
(§6) 2) 2 L of test or control sample working solution, diluted with acetonitrile to 100 M, and 178 L of liver microsome working solution were added to each tube. For the Blank60 tube, 2 L of acetonitrile was added instead of a test sample. The tubes were pre-incubated in a 37° C. water bath for about 10 min, with each sample tested in triplicate.
(§7) 3) After the pre-incubation was complete, 20 L of NADPH working solution was added to each tube except for the 0 min and NCF60 tubes to start reactions, and 20 L of phosphate-buffered saline (containing 30 mM MgCl2) was added to the NCF60 tube. In the incubation system, the final concentrations of the test and control samples were 1 M, the final concentration of liver microsomes was 0.5 mg/mL, the final concentration of NADPH was 1 mM, and the final concentration of MgCl2 was 3 mM.
(§8) 4) For the 0 min sample, 600 L of stop solution was added before adding the NADPH working solution. After each sample was incubated for its respective time, 600 L of stop solution was added to stop the reaction.
(§9) 5) After the reaction was stopped, each sample was vortexed for 30 s and then centrifuged at 13,500 rpm for 10 min. 100 L of the supernatant was transferred to an EP tube, and 100 L Milli-Q water was added. The mixture was well mixed by vortexing and analyzed by LC-MS/MS.
(§10) 6) Testosterone and dextromethorphan were used as positive control samples under the same conditions to assess the stability and reliability of the system.
(§11) Parameters of the test samples, including their half-lives, intrinsic clearance rates in liver microsomes, and hepatic intrinsic clearance rates, were calculated based on the percentage of test sample remaining.

Structure (SMILES) | CLint scaled at 1 µM | T1/2 | half-life at 1 µM
C[C@@]1(O)CC[C@H]2[C@H](CC[C@@H]3[C@@H]2CC[C@]2(C)[C@@H](C(=O)Cn4cnn(-c5ccnc(OCC(F)(F)F)c5)c4=O)CC[C@@H]32)C1 [Compound 39] | 8 mL/min/kg | 154 min | –
C[C@@]1(O)CC[C@H]2[C@H](CC[C@@H]3[C@@H]2CC[C@]2(C)[C@@H](C(=O)Cn4cnn(-c5cc(F)ccc5F)c4=O)CC[C@@H]32)C1 [Compound 24] | 17 mL/min/kg | – | 71.4 min
C[C@@]1(O)CC[C@H]2[C@H](CC[C@@H]3[C@@H]2CC[C@]2(C)[C@@H](C(=O)Cn4cnn(-c5ccccc5F)c4=O)CC[C@@H]32)C1 [Compound 18] | 30 mL/min/kg | – | 41.7 min

Same assay, conditions: Human liver microsomes 0.5 mg/mL, NADPH

Structure (SMILES) | Remaining amount % at 60 min
C[C@@]1(O)CC[C@H]2[C@H](CC[C@@H]3[C@@H]2CC[C@]2(C)[C@@H](C(=O)Cn4cnn(-c5ccnc(OCC(F)(F)F)c5)c4=O)CC[C@@H]32)C1 [Compound 39] | 76.2%
C[C@@]1(O)CC[C@H]2[C@H](CC[C@@H]3[C@@H]2CC[C@]2(C)[C@@H](C(=O)Cn4cnn(-c5cc(F)ccc5F)c4=O)CC[C@@H]32)C1 [Compound 24] | 56.1%
C[C@@]1(O)CC[C@H]2[C@H](CC[C@@H]3[C@@H]2CC[C@]2(C)[C@@H](C(=O)Cn4cnn(-c5ccccc5F)c4=O)CC[C@@H]32)C1 [Compound 18] | 38.3%

Same assay, conditions: Human liver microsomes; read-out: CLint(mic)

Structure (SMILES) | microsomal CLint at 1 µM
C[C@@]1(O)CC[C@H]2[C@H](CC[C@@H]3[C@@H]2CC[C@]2(C)[C@@H](C(=O)Cn4cnn(-c5ccnc(OCC(F)(F)F)c5)c4=O)CC[C@@H]32)C1 [Compound 39] | 9 µL/min/mg
C[C@@]1(O)CC[C@H]2[C@H](CC[C@@H]3[C@@H]2CC[C@]2(C)[C@@H](C(=O)Cn4cnn(-c5cc(F)ccc5F)c4=O)CC[C@@H]32)C1 [Compound 24] | 19 µL/min/mg
C[C@@]1(O)CC[C@H]2[C@H](CC[C@@H]3[C@@H]2CC[C@]2(C)[C@@H](C(=O)Cn4cnn(-c5ccccc5F)c4=O)CC[C@@H]32)C1 [Compound 18] | 33 µL/min/mg

Molecular target: T1, α4β3δ GABA receptors (α4β3δ-HEK-FlpIn-TRex stable cell strain) (Homo sapiens, UniProt P28472+P48169)
T1 construct: expressed in transfected cells
Assay: Whole-cell patch clamp, extrasynaptic functional activity (positive allosteric regulation of GABA-induced current)
Type: cell-based
Conditions: patch clamp -60 mV, GABA at EC10-20, α4β3δ-HEK-FlpIn-TRex cells
Method: (§12) The α4β3δ-HEK-FlpIn-TRex stable cell strain was cultured in DMEM+10% FBS complete culture medium, with the selective antibiotics being 10 μg/mL Blasticidin, 100 µg/mL Zeocin, 100 µg/mL Hygromycin, and 0.2 μg/mL Puromycin. The α1β2γ2-CHO-TRex stable cell strain was cultured in DMEM/F12+10% FBS complete culture medium, with the selective antibiotics being 10 μg/mL Blasticidin, 100 μg/mL Zeocin, 300 μg/mL Hygromycin, and […] Puromycin.
(§13) The day before the patch clamp experiment, cells were seeded onto 12 mm polylysine-coated coverslips and then cultured in 35 mm culture dishes, and tetracycline ([…]) was added to induce the expression of GABA receptors. The extracellular fluid had the following composition (in mM): 140 NaCl, 3 KCl, 1.5 MgCl2, 2 CaCl2, 10 HEPES, and 10 Glucose. After thorough mixing, NaOH was added to adjust the pH to 7.4, and sucrose was added to adjust the osmotic pressure to 300-320 mOsm. The fluid was stored at 4° C. The electrode internal solution had the following composition (in mM): 145 KCl, 1 MgCl2, 5 EGTA, 10 HEPES, and 5 MgATP. After thorough mixing, KOH was added to adjust the pH to 7.3, and sucrose was added to adjust the osmotic pressure to 290-300 mOsm. The solution was filtered through a […] before use.
(§14) Whole-cell patch clamp recording was mainly employed in this experiment. The membrane potential was clamped at −60 mV, and receptors were activated using GABA at an EC10-20 concentration ([…]). The test compounds were dissolved in 0.1% DMSO, and perfusion was performed for 30 s prior to GABA stimulation. Finally, the positive allosteric regulating effects of the test compounds on α1β2γ2 or α4β3δ were determined.
(§15) The experimental result for each concentration was expressed as a fold increase in the GABA-induced current caused by the compound. […] At least 5 concentrations are tested to obtain a complete EC50 curve and EC50 values. All experiments were repeated on no less than 3 cells, and data processing was completed using GraphPad prism software. The dose-response curves were fitted using the Hill equation, and the half-maximal activating concentration EC50 and Emax were finally obtained.

T1 sequence (P48169 36-554): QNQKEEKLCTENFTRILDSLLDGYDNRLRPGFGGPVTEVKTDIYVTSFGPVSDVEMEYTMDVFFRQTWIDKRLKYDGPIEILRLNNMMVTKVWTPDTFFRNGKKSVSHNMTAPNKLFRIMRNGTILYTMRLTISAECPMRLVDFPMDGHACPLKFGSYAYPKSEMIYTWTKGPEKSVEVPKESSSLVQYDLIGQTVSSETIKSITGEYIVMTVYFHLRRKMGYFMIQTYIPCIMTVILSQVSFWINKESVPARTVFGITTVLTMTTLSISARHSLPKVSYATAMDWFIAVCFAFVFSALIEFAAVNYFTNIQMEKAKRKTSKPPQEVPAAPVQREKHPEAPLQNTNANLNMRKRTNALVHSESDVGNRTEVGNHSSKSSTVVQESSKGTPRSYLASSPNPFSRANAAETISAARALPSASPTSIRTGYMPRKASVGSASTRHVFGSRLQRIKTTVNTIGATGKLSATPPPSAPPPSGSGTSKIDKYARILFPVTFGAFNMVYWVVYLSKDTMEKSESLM
T1 sequence (P28472 26-473): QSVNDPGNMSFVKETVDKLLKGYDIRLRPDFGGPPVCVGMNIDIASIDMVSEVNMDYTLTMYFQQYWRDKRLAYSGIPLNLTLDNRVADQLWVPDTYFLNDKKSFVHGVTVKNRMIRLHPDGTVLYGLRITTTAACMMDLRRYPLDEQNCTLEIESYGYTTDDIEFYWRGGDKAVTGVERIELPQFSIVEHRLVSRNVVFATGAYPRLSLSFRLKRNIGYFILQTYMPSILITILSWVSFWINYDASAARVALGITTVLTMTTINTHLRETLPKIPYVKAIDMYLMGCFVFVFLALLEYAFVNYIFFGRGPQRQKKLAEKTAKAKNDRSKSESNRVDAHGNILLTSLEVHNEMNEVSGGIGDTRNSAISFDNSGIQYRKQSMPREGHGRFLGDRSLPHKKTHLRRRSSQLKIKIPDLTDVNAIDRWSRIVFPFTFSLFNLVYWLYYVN
T1 sequence (O14764 25-452 partner): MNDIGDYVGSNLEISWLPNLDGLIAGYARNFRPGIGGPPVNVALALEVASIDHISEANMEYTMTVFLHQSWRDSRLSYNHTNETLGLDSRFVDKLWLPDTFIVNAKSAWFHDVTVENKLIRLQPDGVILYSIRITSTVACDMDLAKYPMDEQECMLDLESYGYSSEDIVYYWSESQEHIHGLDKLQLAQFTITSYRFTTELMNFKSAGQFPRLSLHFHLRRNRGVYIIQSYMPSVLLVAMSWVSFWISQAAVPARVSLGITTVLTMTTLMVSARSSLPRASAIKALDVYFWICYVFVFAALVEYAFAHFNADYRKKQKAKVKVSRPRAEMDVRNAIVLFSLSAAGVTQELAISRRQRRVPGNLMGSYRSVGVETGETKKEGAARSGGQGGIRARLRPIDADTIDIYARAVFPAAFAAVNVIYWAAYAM

Structure (SMILES) | Emax | EC50
C[C@@]1(O)CC[C@H]2[C@H](CC[C@@H]3[C@@H]2CC[C@]2(C)[C@@H](C(=O)Cn4cnn(-c5ccnc(OCC(F)(F)F)c5)c4=O)CC[C@@H]32)C1 [Compound 39] | 967% | –
C[C@@]1(O)CC[C@H]2[C@H](CC[C@@H]3[C@@H]2CC[C@]2(C)[C@@H](C(=O)Cn4cnn(-c5cc(F)ccc5F)c4=O)CC[C@@H]32)C1 [Compound 24] | 743% | 79 nM
C[C@@]1(O)CC[C@H]2[C@H](CC[C@@H]3[C@@H]2CC[C@]2(C)[C@@H](C(=O)Cn4cnn(-c5ccccc5F)c4=O)CC[C@@H]32)C1 [Compound 18] | 541% | 107 nM

Molecular target: T2, α1β2γ2 GABA receptors (α1β2γ2-CHO-TRex stable cell strain) (Homo sapiens, UniProt P14867+P47870)
T2 construct: expressed in transfected cells
Assay: Whole-cell patch clamp, intrasynaptic functional activity (positive allosteric regulation of GABA-induced current)
Type: cell-based
Conditions: patch clamp -60 mV, GABA at EC10-20, α1β2γ2-CHO-TRex cells
Method: as §12, §13, §14, §15

T2 sequence (P14867 28-456): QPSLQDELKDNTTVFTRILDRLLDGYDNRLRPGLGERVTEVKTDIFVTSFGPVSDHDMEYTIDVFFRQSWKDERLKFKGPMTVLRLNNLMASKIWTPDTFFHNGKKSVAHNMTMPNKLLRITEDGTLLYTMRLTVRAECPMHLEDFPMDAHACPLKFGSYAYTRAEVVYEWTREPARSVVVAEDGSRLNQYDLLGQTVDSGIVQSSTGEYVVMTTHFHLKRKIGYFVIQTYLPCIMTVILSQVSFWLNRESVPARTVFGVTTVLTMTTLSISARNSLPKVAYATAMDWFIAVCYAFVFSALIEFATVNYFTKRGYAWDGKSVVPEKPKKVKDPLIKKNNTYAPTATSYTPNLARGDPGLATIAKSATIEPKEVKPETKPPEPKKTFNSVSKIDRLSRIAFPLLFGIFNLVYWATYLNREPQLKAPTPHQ
T2 sequence (P47870 25-512 limits assumed): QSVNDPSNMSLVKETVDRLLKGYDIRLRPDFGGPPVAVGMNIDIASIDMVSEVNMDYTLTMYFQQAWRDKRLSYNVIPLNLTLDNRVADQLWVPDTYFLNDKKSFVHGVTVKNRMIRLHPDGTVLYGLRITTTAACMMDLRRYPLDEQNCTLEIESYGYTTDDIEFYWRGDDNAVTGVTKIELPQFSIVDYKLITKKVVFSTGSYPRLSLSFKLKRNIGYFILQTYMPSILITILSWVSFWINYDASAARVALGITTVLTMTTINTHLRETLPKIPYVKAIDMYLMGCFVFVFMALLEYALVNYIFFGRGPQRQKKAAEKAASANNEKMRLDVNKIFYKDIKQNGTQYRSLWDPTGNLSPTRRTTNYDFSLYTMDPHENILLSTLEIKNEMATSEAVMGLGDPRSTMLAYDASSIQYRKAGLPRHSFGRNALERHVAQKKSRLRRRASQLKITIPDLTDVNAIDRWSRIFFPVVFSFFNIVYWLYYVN
T2 sequence (P18507 40-475 partner): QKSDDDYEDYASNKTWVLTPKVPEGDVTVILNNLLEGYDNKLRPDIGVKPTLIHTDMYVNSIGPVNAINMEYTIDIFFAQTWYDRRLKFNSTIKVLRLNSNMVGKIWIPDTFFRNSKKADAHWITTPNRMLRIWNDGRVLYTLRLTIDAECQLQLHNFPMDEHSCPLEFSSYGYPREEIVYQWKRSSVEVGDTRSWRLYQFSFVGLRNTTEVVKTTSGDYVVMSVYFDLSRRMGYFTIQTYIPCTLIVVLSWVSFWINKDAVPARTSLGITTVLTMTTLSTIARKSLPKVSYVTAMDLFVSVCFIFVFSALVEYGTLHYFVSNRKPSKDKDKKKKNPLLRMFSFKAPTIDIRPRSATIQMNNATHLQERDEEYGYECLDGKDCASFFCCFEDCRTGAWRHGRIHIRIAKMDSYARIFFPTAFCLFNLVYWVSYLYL

Structure (SMILES) | Emax | EC50
C[C@@]1(O)CC[C@H]2[C@H](CC[C@@H]3[C@@H]2CC[C@]2(C)[C@@H](C(=O)Cn4cnn(-c5ccnc(OCC(F)(F)F)c5)c4=O)CC[C@@H]32)C1 [Compound 39] | 675% | –
C[C@@]1(O)CC[C@H]2[C@H](CC[C@@H]3[C@@H]2CC[C@]2(C)[C@@H](C(=O)Cn4cnn(-c5cc(F)ccc5F)c4=O)CC[C@@H]32)C1 [Compound 24] | 347% | 340 nM
C[C@@]1(O)CC[C@H]2[C@H](CC[C@@H]3[C@@H]2CC[C@]2(C)[C@@H](C(=O)Cn4cnn(-c5ccccc5F)c4=O)CC[C@@H]32)C1 [Compound 18] | 710% | 171 nM

System: not listed separately
Assay: In vitro liver microsomal stability assay, rat
Type: in vitro ADME
Conditions: Rat liver microsomes
Method: as §1, §2, §3, §4, §5, §6, §7, §8, §9, §10, §11

Structure (SMILES) | CLint scaled at 1 µM | half-life at 1 µM
C[C@@]1(O)CC[C@H]2[C@H](CC[C@@H]3[C@@H]2CC[C@]2(C)[C@@H](C(=O)Cn4cnn(-c5ccnc(OCC(F)(F)F)c5)c4=O)CC[C@@H]32)C1 [Compound 39] | < 13.5 mL/min/kg | > 186 min
C[C@@]1(O)CC[C@H]2[C@H](CC[C@@H]3[C@@H]2CC[C@]2(C)[C@@H](C(=O)Cn4cnn(-c5cc(F)ccc5F)c4=O)CC[C@@H]32)C1 [Compound 24] | 118 mL/min/kg | 21.1 min
C[C@@]1(O)CC[C@H]2[C@H](CC[C@@H]3[C@@H]2CC[C@]2(C)[C@@H](C(=O)Cn4cnn(-c5ccccc5F)c4=O)CC[C@@H]32)C1 [Compound 18] | 278 mL/min/kg | 9 min

Same assay, conditions: Rat liver microsomes 0.5 mg/mL, NADPH

Structure (SMILES) | Remaining amount % at 60 min
C[C@@]1(O)CC[C@H]2[C@H](CC[C@@H]3[C@@H]2CC[C@]2(C)[C@@H](C(=O)Cn4cnn(-c5ccnc(OCC(F)(F)F)c5)c4=O)CC[C@@H]32)C1 [Compound 39] | 90.6%
C[C@@]1(O)CC[C@H]2[C@H](CC[C@@H]3[C@@H]2CC[C@]2(C)[C@@H](C(=O)Cn4cnn(-c5cc(F)ccc5F)c4=O)CC[C@@H]32)C1 [Compound 24] | 14.7%
C[C@@]1(O)CC[C@H]2[C@H](CC[C@@H]3[C@@H]2CC[C@]2(C)[C@@H](C(=O)Cn4cnn(-c5ccccc5F)c4=O)CC[C@@H]32)C1 [Compound 18] | 9.7%

Same assay, conditions: Rat liver microsomes; read-out: CLint(mic)

Structure (SMILES) | microsomal CLint at 1 µM
C[C@@]1(O)CC[C@H]2[C@H](CC[C@@H]3[C@@H]2CC[C@]2(C)[C@@H](C(=O)Cn4cnn(-c5ccnc(OCC(F)(F)F)c5)c4=O)CC[C@@H]32)C1 [Compound 39] | < 7.5 µL/min/mg
C[C@@]1(O)CC[C@H]2[C@H](CC[C@@H]3[C@@H]2CC[C@]2(C)[C@@H](C(=O)Cn4cnn(-c5cc(F)ccc5F)c4=O)CC[C@@H]32)C1 [Compound 24] | 66 µL/min/mg
C[C@@]1(O)CC[C@H]2[C@H](CC[C@@H]3[C@@H]2CC[C@]2(C)[C@@H](C(=O)Cn4cnn(-c5ccccc5F)c4=O)CC[C@@H]32)C1 [Compound 18] | 154 µL/min/mg
